Data set [1] relates to Human immunodeficiency virus 1. As to the kind of experiment: Antiviral activity against wildtype HIV-1 IIIB infected in human MT4 cells assessed as protection against virus-induced cytopathic effect incubated for 5 days by MTT assay. The format is functional, organism-based. The note with it: Human immunodeficiency virus 1, IIIB, MT4, 120 h.
Data set [2] can be described thus: Cytotoxicity against human MT4 cells assessed as reduction in cell viability measured after 5 days by MTT assay. Particulars: MT4 cells.
The nature of data set [3]: Selectivity index, ratio of CC50 for human MT4 cells to EC50 for wild type HIV-1 IIIB infected in human MT4 cellS. The note with it: MT4 cells.
The target of data set [4] is Human immunodeficiency virus type 1 reverse transcriptase (Human immunodeficiency virus 1, UniProt Q72547). As to the kind of experiment: Inhibition of recombinant wild type HIV-1 Reverse transcriptase incubated for 40 mins by Pico-green reagent based fluorescence analysis.

Data on 33 compounds can be found in ChEMBL document CHEMBL6120973 (J Med Chem, 2024).

With `Cc1cncc(-c2cnc(Nc3ccc(C#N)cc3)nc2Nc2c(F)cc(-c3ccncc3)cc2F)c1`, the EC50 in data set [1] came out at 0.041 µM. Moreover, the CC50 at 120 h in data set [2] worked out at 104 µM. For the same compound, in data set [3], the selectivity ratio amounted to 2540.

With `N#Cc1ccc(Nc2ncc(-c3ccco3)c(Nc3c(F)cc(-c4ccncc4)cc3F)n2)cc1`, the concentration giving a half-maximal response (EC50) in data set [1] turned out to be 0.007 µM. Also, in data set [2], the CC50 at 120 h was over 42.9 µM. Also, the selectivity ratio in data set [3] is over 6300. Also, the IC50 in data set [4] is 0.077 µM.

For the compound `Cc1cc(-c2cnc(Nc3ccc(C#N)cc3)nc2Nc2c(C)cc(-c3ccncc3)cc2C)cnc1F`, the EC50 in data set [1] was determined as 0.033 µM. In addition, the CC50 at 120 h in data set [2] is over 249 µM. In addition, the selectivity ratio in data set [3] was over 7640.

In the case of `Cc1cc(-c2cnc(Nc3ccc(C#N)cc3)nc2Nc2c(C)cc(-c3ccncc3)cc2C)cnc1Cl`, the EC50 in data set [1] came out at 0.043 µM. The CC50 at 120 h in data set [2] is over 242 µM. Besides, the selectivity ratio in data set [3] is over 5560.

With `Cc1cc(-c2ccncc2)cc(C)c1Nc1nc(Nc2ccc(C#N)cc2)ncc1-c1cncc(F)c1`, in data set [1], the EC50 was found to be 0.043 µM. In addition, the CC50 at 120 h in data set [2] was over 257 µM. Also, the selectivity ratio in data set [3] was over 6000.

Turning to `Cc1cncc(-c2cnc(Nc3ccc(C#N)cc3)nc2Nc2c(C)cc(-c3ccncc3)cc2C)c1`, the concentration giving a half-maximal response (EC50) in data set [1] was found to be 0.018 µM. Besides, the CC50 at 120 h in data set [2] was 11.5 µM. In data set [3], the selectivity ratio was 656.

Turning to `Cc1cc(-c2cnc(Nc3ccc(C#N)cc3)nc2Nc2c(F)cc(-c3ccncc3)cc2F)cc(C)n1`, the EC50 in data set [1] is 0.1 µM. The CC50 at 120 h in data set [2] was found to be 97.9 µM. Also, in data set [3], the selectivity ratio was 984.

As to `Cc1ccc(-c2cnc(Nc3ccc(C#N)cc3)nc2Nc2c(F)cc(-c3ccncc3)cc2F)cn1`, the EC50 in data set [1] was 0.027 µM. Besides, the CC50 at 120 h in data set [2] was determined as 194 µM. In addition, in data set [3], the selectivity ratio amounted to 7300.

In the case of `N#Cc1ccc(Nc2ncc(-c3ccnc(Cl)c3)c(Nc3c(F)cc(-c4ccncc4)cc3F)n2)cc1`, the EC50 in data set [1] is 0.007 µM. Besides, the CC50 at 120 h in data set [2] is 103 µM. The selectivity ratio in data set [3] came out at 14100. Further, the IC50 in data set [4] turned out to be 0.138 µM.

In the case of `Cn1c(Cn2ccc(C(F)(F)F)c(Oc3cc(Cl)cc(C#N)c3)c2=O)n[nH]c1=O` [DORAVIRINE], the IC50 in data set [4] turned out to be 0.033 µM.

Turning to `COc1ncc(-c2cnc(Nc3ccc(C#N)cc3)nc2Nc2c(F)cc(-c3ccncc3)cc2F)cc1F`, the EC50 in data set [1] worked out at 0.049 µM. The CC50 at 120 h in data set [2] is over 238 µM. For the same compound, in data set [3], the selectivity ratio was over 4810.

Consider `Cc1cc(-c2ccncc2)cc(C)c1Nc1nc(Nc2ccc(C#N)cc2)ncc1-c1ccc(N(C)C)nc1`, for which the EC50 in data set [1] worked out at 0.112 µM. Further, in data set [2], the CC50 at 120 h is over 39 µM. Besides, the selectivity ratio in data set [3] is over 350.

For the compound `Cc1cc(-c2cnc(Nc3ccc(C#N)cc3)nc2Nc2c(C)cc(-c3ccncc3)cc2C)cc(C)n1`, the EC50 in data set [1] was 0.064 µM. Moreover, the CC50 at 120 h in data set [2] came out at 36.1 µM. For the same compound, the selectivity ratio in data set [3] stood at 563.

In the case of `Cc1cc(-c2ccncc2)cc(C)c1Nc1nc(Nc2ccc(C#N)cc2)ncc1-c1ccc(Cl)nc1`, in data set [1], the concentration giving a half-maximal response (EC50) is 0.001 µM. Further, in data set [2], the CC50 at 120 h was found to be 3.98 µM. Moreover, the selectivity ratio in data set [3] amounted to 3990. Also, in data set [4], the IC50 amounted to 0.175 µM.

On to `N#Cc1ccc(Nc2ncc(-c3cncc(F)c3)c(Nc3c(F)cc(-c4ccncc4)cc3F)n2)cc1`, for which, in data set [1], the EC50 was found to be 0.017 µM. The CC50 at 120 h in data set [2] amounted to 156 µM. For the same compound, the selectivity ratio in data set [3] turned out to be 9400.

`N#Cc1ccc(Nc2ncc(-c3ccnc(F)c3)c(Nc3c(F)cc(-c4ccncc4)cc3F)n2)cc1`: the 50% effective concentration (EC50) in data set [1] amounted to 0.01 µM. Further, the CC50 at 120 h in data set [2] came out at 121 µM. Besides, in data set [3], the selectivity ratio was determined as 12300. In data set [4], the IC50 worked out at 0.127 µM.

Consider `N#Cc1ccc(Nc2ncc(-c3cccs3)c(Nc3c(F)cc(-c4ccncc4)cc3F)n2)cc1`, for which the EC50 in data set [1] was 0.011 µM. Further, in data set [2], the CC50 at 120 h came out at 23.4 µM. In addition, in data set [3], the selectivity ratio turned out to be 2170. For the same compound, the IC50 in data set [4] came out at 0.105 µM.

As to `N#Cc1ccc(Nc2ncc(-c3cccnc3)c(Nc3c(F)cc(-c4ccncc4)cc3F)n2)cc1`, the EC50 in data set [1] came to 0.019 µM. The CC50 at 120 h in data set [2] is over 41.9 µM. Further, in data set [3], the selectivity ratio is over 2250.

Take `Cc1cc(-c2cnc(Nc3ccc(C#N)cc3)nc2Nc2c(F)cc(-c3ccncc3)cc2F)cnc1Cl`: the EC50 in data set [1] was found to be 0.153 µM. For the same compound, in data set [2], the CC50 at 120 h is over 238 µM. The selectivity ratio in data set [3] is over 1560.

`N#Cc1ccc(Nc2ncc(-c3ccncc3)c(Nc3c(F)cc(-c4ccncc4)cc3F)n2)cc1`: the EC50 in data set [1] was 0.01 µM. Moreover, the CC50 at 120 h in data set [2] is over 41.9 µM. For the same compound, in data set [3], the selectivity ratio is over 4360.

`N#Cc1ccc(Nc2ncc(-c3ccc(Cl)nc3)c(Nc3c(F)cc(-c4ccncc4)cc3F)n2)cc1`: in data set [1], the EC50 worked out at 0.01 µM. Besides, the CC50 at 120 h in data set [2] was 196 µM. The selectivity ratio in data set [3] worked out at 19100.

Turning to `CN(C)c1ccc(-c2cnc(Nc3ccc(C#N)cc3)nc2Nc2c(F)cc(-c3ccncc3)cc2F)cn1`, the EC50 in data set [1] turned out to be 0.074 µM. The CC50 at 120 h in data set [2] stood at 52.9 µM. In addition, the selectivity ratio in data set [3] is 714.

On to `COc1ccc(-c2cnc(Nc3ccc(C#N)cc3)nc2Nc2c(F)cc(-c3ccncc3)cc2F)cn1`, for which the EC50 in data set [1] is 0.026 µM. Moreover, the CC50 at 120 h in data set [2] came to 169 µM. Besides, in data set [3], the selectivity ratio was 6430.

Take `N#Cc1ccc(Nc2ncc(-c3cncc(N)c3)c(Nc3c(F)cc(-c4ccncc4)cc3F)n2)cc1`: the concentration for a half-maximal effect (EC50) in data set [1] is 0.07 µM. The 50% cytotoxic concentration (CC50) at 120 h in data set [2] amounted to 167 µM. The selectivity ratio in data set [3] is 2380.

Take `Cc1cc(-c2cnc(Nc3ccc(C#N)cc3)nc2Nc2c(F)cc(-c3ccncc3)cc2F)ccn1`: the EC50 in data set [1] worked out at 0.02 µM. In data set [2], the CC50 at 120 h amounted to 162 µM. The selectivity ratio in data set [3] was found to be 8090.

As to `N#Cc1ccc(Nc2ncc(-c3ccc(N)nc3)c(Nc3c(F)cc(-c4ccncc4)cc3F)n2)cc1`, in data set [1], the EC50 is 0.025 µM. Also, in data set [2], the CC50 at 120 h worked out at 143 µM. For the same compound, the selectivity ratio in data set [3] worked out at 5790.

In the case of `Cc1cc(-c2cnc(Nc3ccc(C#N)cc3)nc2Nc2c(F)cc(-c3ccncc3)cc2F)cnc1F`, the EC50 in data set [1] amounted to 0.025 µM. For the same compound, the CC50 at 120 h in data set [2] is over 246 µM. In data set [3], the selectivity ratio is over 9800.

For the compound `N#Cc1ccc(Nc2ncc(-c3cncc(Cl)c3)c(Nc3c(F)cc(-c4ccncc4)cc3F)n2)cc1`, the EC50 in data set [1] came to 0.017 µM. In addition, the CC50 at 120 h in data set [2] was found to be 159 µM. The selectivity ratio in data set [3] is 9340.

`Cc1cc(-c2ccncc2)cc(C)c1Nc1nc(Nc2ccc(C#N)cc2)ncc1-c1ccc(C(F)(F)F)nc1`: in data set [1], the EC50 came to 0.045 µM. Also, the CC50 at 120 h in data set [2] is over 3720 µM. For the same compound, the selectivity ratio in data set [3] is over 822.

On to `COc1cc(-c2cnc(Nc3ccc(C#N)cc3)nc2Nc2c(F)cc(-c3ccncc3)cc2F)ccn1`, for which, in data set [1], the EC50 was 0.02 µM. Moreover, in data set [2], the CC50 at 120 h was over 246 µM. The selectivity ratio in data set [3] was over 12400.

Turning to `COc1ccc(-c2cnc(Nc3ccc(C#N)cc3)nc2Nc2c(C)cc(-c3ccncc3)cc2C)cn1`, in data set [1], the EC50 came out at 0.077 µM. Besides, in data set [2], the CC50 at 120 h is over 250 µM. In addition, the selectivity ratio in data set [3] is over 3270.

With `N#Cc1ccc(Nc2ncc(-c3ccc(F)nc3)c(Nc3c(F)cc(-c4ccncc4)cc3F)n2)cc1`, the EC50 in data set [1] worked out at 0.009 µM. For the same compound, the CC50 at 120 h in data set [2] turned out to be 167 µM. Moreover, in data set [3], the selectivity ratio amounted to 18500.

With `COc1ncc(-c2cnc(Nc3ccc(C#N)cc3)nc2Nc2c(F)cc(-c3ccncc3)cc2F)cc1N`, the EC50 in data set [1] turned out to be 0.044 µM. Further, the CC50 at 120 h in data set [2] was determined as 215 µM. For the same compound, the selectivity ratio in data set [3] is 4930.
